Measurements reported in DBAASP.
Values after ≈ are worked out from the molar mass of the structure shown. Values joined by “and” are separate entries in the source; they are usually repeats but may differ in a detail not shown here. Identical values can stand only once.

Experiments:
Test in all cases: ≥ marks a high value that may be exact or a test limit, other limits are often not marked, values filed in µg/mL are converted to µM
Vibrio alginolyticus = system: Vibrio alginolyticus
[1] = system: Klebsiella oxytoca BCRC 13985
[2] = system: Streptococcus equinus BCRC 14729
[3] = system: Escherichia coli BCRC 10675
[4] = system: Listeria monocytogenes BCRC 14845
[5] = system: Klebsiella aerogenes BCRC 10370
[6] = system: Vibrio parahaemolyticus BCRC 10806
[7] = system: Vibrio anguillarum serotype O1
Streptococcus iniae = system: Streptococcus iniae
Vibrio parahaemolyticus = system: Vibrio parahaemolyticus
[8] = system: Staphylococcus aureus BCRC 10780
[9] = system: Staphylococcus xylosus BCRC 12930
Vibrio harveyi = system: Vibrio harveyi
[10] = system: Enterobacter cloacae BCRC 10401
[11] = system: Vibrio alginolyticus BCRC 12829
[12] = system: Yersinia enterocolitica BCRC 13999
[13] = system: Staphylococcus aureus BCRC 10781
Lactococcus garvieae = system: Lactococcus garvieae
[14] = system: Pseudomonas aeruginosa BCRC 10944
[15] = system: Staphylococcus aureus ATCC 33591
[16] = system: Staphylococcus aureus 930918-3
[17] = system: Escherichia coli NEB5alpha
[18] = system: Bacillus subtilis ATCC 6051
[19] = system: Salmonella typhimurium C587
[20] = system: Staphylococcus aureus ATCC 25923
Bacillus subtilis C971 = system: Bacillus subtilis C971
Escherichia coli DC2 = system: Escherichia coli DC2
[21] = system: Salmonella typhimurium C610
[22] = system: Staphylococcus aureus SAP 0017
[23] = system: Corynebacterium xerosis C875
[24] = system: Escherichia coli ATCC 25922
[25] = system: Pseudomonas aeruginosa H188
[26] = system: Pseudomonas aeruginosa H187
[27] = system: Pseudomonas aeruginosa ATCC 27853
[28] = system: Staphylococcus epidermidis ATCC 12228
[29] = system: Staphylococcus epidermidis C621
Escherichia coli UB1005 = system: Escherichia coli UB1005
[30] = system: Enterococcus faecalis C625

SMILES	MIC (Vibrio alginolyticus) [µM]	MIC [1] [µM]	MIC [2] [µM]	MIC [3] [µM]	MIC [4] [µM]	MIC [5] [µM]	MIC [6] [µM]	MIC [7] [µM]	MIC (Streptococcus iniae) [µM]	MIC (Vibrio parahaemolyticus) [µM]	MIC [8] [µM]	MIC [9] [µM]	MIC (Vibrio harveyi) [µM]	MIC [10] [µM]	MIC [11] [µM]	MIC [12] [µM]	MIC [13] [µM]	MIC (Lactococcus garvieae) [µM]	MIC [14] [µM]	MIC [19] [µM]	also measured
CC[C@H](C)[C@H](NC(=O)CN)C(=O)N[C@@H](CCCCN)C(=O)N[C@H](C(=O)N[C@@H](C)C(=O)N[C@@H](CCCCN)C(=O)N[C@@H](CCCCN)C(=O)N[C@@H](C)C(=O)N[C@H](C(=O)N[C@H](C(=O)N[C@H](C(=O)N[C@@H](C)C(=O)N[C@@H](CCCCN)C(=O)N[C@@H](CCCCN)C(=O)N[C@H](C(=O)N[C@@H](C)C(=O)N[C@@H](CCCCN)C(=O)N[C@H](C(=O)N[C@@H](Cc1ccc(O)cc1)C(=O)N[C@@H](Cc1c[nH]c2ccccc12)C(=O)O)[C@@H](C)CC)[C@@H](C)CC)[C@@H](C)CC)[C@@H](C)O)[C@@H](C)CC)[C@@H](C)CC [GIKIAKKAITIAKKIAKIYW]	1.77 (≈ 4 µg/mL)	14.2 (≈ 32 µg/mL)	≥ 56.7	7.09 (≈ 16 µg/mL)	14.2 (≈ 32 µg/mL)	7.09 (≈ 16 µg/mL)	≥ 56.7	14.2 (≈ 32 µg/mL)	≥ 56.7	7.09 (≈ 16 µg/mL)	14.2 (≈ 32 µg/mL)	1.77 (≈ 4 µg/mL)	14.2 (≈ 32 µg/mL)	3.54 (≈ 8 µg/mL)	≥ 56.7	14.2 (≈ 32 µg/mL)	14.2 (≈ 32 µg/mL)	≥ 56.7	7.09 (≈ 16 µg/mL)	–	–
CC[C@H](C)[C@H](NC(=O)[C@H](CCCCN)NC(=O)[C@H](CCCCN)NC(=O)[C@H](CC(C)C)NC(=O)[C@H](CCCCN)NC(=O)[C@H](CCC(=O)O)NC(=O)[C@H](CCCCN)NC(=O)[C@@H](NC(=O)[C@@H](N)CCCCN)[C@@H](C)CC)C(=O)NCC(=O)N[C@@H](CCC(N)=O)C(=O)N[C@@H](CCCCN)C(=O)N[C@H](C(=O)N[C@@H](CCC(N)=O)C(=O)NCC(=O)N[C@@H](CC(C)C)C(=O)N[C@@H](CC(C)C)C(=O)O)[C@@H](C)CC [KIKEKLKKIGQKIQGLL]	–	–	–	–	–	–	–	–	–	–	–	–	–	–	–	–	–	–	–	–	MIC [15]: ≥ 127 µM; MIC [16]: ≥ 127 µM
CC[C@H](C)[C@H](NC(=O)[C@H](CC(N)=O)NC(=O)[C@H](CCC(N)=O)NC(=O)[C@@H](N)Cc1cnc[nH]1)C(=O)NCC(=O)N[C@@H](CO)C(=O)N[C@@H](CO)C(=O)N[C@@H](CO)C(=O)N[C@@H](CO)C(=O)N1CCC[C@H]1C(=O)N[C@@H](CC(=O)O)C(=O)N[C@H](C(=O)N[C@@H](Cc1ccc(O)cc1)C(=O)O)[C@@H](C)CC [HQNIGSSSSPDIY]	–	–	–	–	–	–	–	–	–	–	–	–	–	–	–	–	–	–	–	–	MIC [17]: ≥ 1000 µM; MIC [18]: ≥ 1000 µM
CC[C@H](C)[C@H](NC(=O)[C@H](C)NC(=O)[C@H](CCCCN)NC(=O)[C@H](CC(C)C)NC(=O)[C@H](C)NC(=O)[C@@H](NC(=O)[C@H](Cc1cnc[nH]1)NC(=O)[C@H](CC(C)C)NC(=O)[C@@H](NC(=O)[C@@H](NC(=O)[C@H](CCCCN)NC(=O)[C@H](CO)NC(=O)[C@H](C)NC(=O)[C@H](CO)NC(=O)[C@H](CCCCN)NC(=O)[C@H](Cc1ccccc1)NC(=O)[C@@H](NC(=O)[C@H](CCCCN)NC(=O)[C@H](CC(C)C)NC(=O)[C@H](Cc1ccccc1)NC(=O)[C@H](CO)NC(=O)[C@H](CCCCN)NC(=O)[C@H](Cc1c[nH]c2ccccc12)NC(=O)[C@H](CCCCN)NC(C)=O)[C@@H](C)O)[C@@H](C)O)C(C)C)[C@@H](C)O)C(=O)N[C@@H](CO)C(=O)N[C@@H](CO)C(N)=O [KWKSFLKTFKSASKTVLHTALKAISS]	–	–	–	–	–	–	–	–	–	–	–	–	–	–	–	–	–	–	–	2.2 (≈ 6.49 µg/mL)	MIC [20]: 5.5 µM and 8 µM; MIC (Bacillus subtilis C971): 0.86 µM (≈ 2.54 µg/mL); MIC (Escherichia coli DC2): 0.86 µM (≈ 2.54 µg/mL); MIC [21]: 0.688 µM (≈ 2.03 µg/mL); MIC [22]: 4.37 µM (≈ 12.9 µg/mL); MIC [23]: 0.55 µM (≈ 1.62 µg/mL); MIC [24]: 8 µM (≈ 23.6 µg/mL); MIC [25]: 3.47 µM (≈ 10.2 µg/mL); MIC [26]: 2.2 µM (≈ 6.49 µg/mL); MIC [27]: 8 µM (≈ 23.6 µg/mL); MIC [28]: 4 µM (≈ 11.8 µg/mL); MIC [29]: 1.38 µM (≈ 4.06 µg/mL); MIC (Escherichia coli UB1005): 0.86 µM (≈ 2.54 µg/mL); MIC [30]: 17.5 µM (≈ 51.5 µg/mL)
CC[C@H](C)[C@H](NC(=O)[C@H](C)NC(=O)[C@H](CCCCN)NC(=O)[C@H](CC(C)C)NC(=O)[C@H](C)NC(=O)[C@@H](NC(=O)[C@H](Cc1cnc[nH]1)NC(=O)[C@H](CC(C)C)NC(=O)[C@@H](NC(=O)[C@@H](NC(=O)[C@H](CCCCN)NC(=O)[C@@H](NC(=O)[C@H](C)NC(=O)[C@H](C)NC(=O)[C@H](CCCCN)NC(=O)[C@H](Cc1ccccc1)NC(=O)[C@@H](NC(=O)[C@H](CCCCN)NC(=O)[C@H](CC(C)C)NC(=O)[C@H](Cc1ccccc1)NC(=O)[C@H](CO)NC(=O)[C@H](CCCCN)NC(=O)[C@H](Cc1c[nH]c2ccccc12)NC(=O)[C@H](CCCCN)NC(C)=O)[C@@H](C)O)C(C)C)[C@@H](C)O)C(C)C)[C@@H](C)O)C(=O)N[C@@H](CO)C(=O)N[C@@H](CO)C(N)=O [KWKSFLKTFKAAVKTVLHTALKAISS]	–	–	–	–	–	–	–	–	–	–	–	–	–	–	–	–	–	–	–	6.95 (≈ 20.5 µg/mL)	MIC [20]: 5.51 µM (≈ 16.2 µg/mL); MIC (Bacillus subtilis C971): 0.861 µM (≈ 2.54 µg/mL); MIC (Escherichia coli DC2): 1.38 µM (≈ 4.06 µg/mL); MIC [21]: 1.38 µM (≈ 4.06 µg/mL); MIC [22]: 4.37 µM (≈ 12.9 µg/mL); MIC [23]: 0.689 µM (≈ 2.03 µg/mL); MIC [25]: 5.51 µM (≈ 16.2 µg/mL); MIC [26]: 3.48 µM (≈ 10.2 µg/mL); MIC [29]: 1.38 µM (≈ 4.06 µg/mL); MIC (Escherichia coli UB1005): 2.2 µM (≈ 6.49 µg/mL); MIC [30]: 6.95 µM (≈ 20.5 µg/mL)
CC[C@H](C)[C@H](NC(=O)[C@H](Cc1ccc(O)cc1)NC(=O)[C@H](CC(N)=O)NC(=O)[C@H](Cc1ccccc1)NC(=O)[C@@H](NC(=O)[C@H](CCCCN)NC(=O)[C@H](CCCCN)NC(=O)[C@@H](NC(=O)[C@H](CC(C)C)NC(=O)[C@H](CC(N)=O)NC(=O)[C@H](C)NC(=O)[C@H](Cc1ccccc1)NC(=O)[C@H](CCCCN)NC(=O)[C@H](CCCCN)NC(=O)[C@H](C)NC(=O)[C@H](C)NC(=O)[C@H](CC(N)=O)NC(=O)[C@H](C)NC(=O)CN)[C@@H](C)CC)[C@@H](C)CC)C(=O)N[C@@H](Cc1c[nH]c2ccccc12)C(=O)O [GANAAKKFANLIKKIFNYIW]	6.92 (≈ 16 µg/mL)	13.8 (≈ 32 µg/mL)	≥ 55.4	6.92 (≈ 16 µg/mL)	13.8 (≈ 32 µg/mL)	6.92 (≈ 16 µg/mL)	13.8 (≈ 32 µg/mL)	6.92 (≈ 16 µg/mL)	≥ 55.4	6.92 (≈ 16 µg/mL)	3.46 (≈ 8 µg/mL)	6.92 (≈ 16 µg/mL)	3.46 (≈ 8 µg/mL)	6.92 (≈ 16 µg/mL)	13.8 (≈ 32 µg/mL)	≥ 55.4	6.92 (≈ 16 µg/mL)	≥ 55.4	13.8 (≈ 32 µg/mL)	–	–
